Test results taken from patent US12636299B2, “Terpenoid derivatives, pharmaceutical preparations containing these derivatives and their use in neuroprotection” (UNIVERZITA PALACKEHO V OLOMOUCI, priority 2020, dated 2026).

How the values were obtained:
[1] = system: superoxide radical formation; assay: Oxidative stress (superoxide radical formation, DHE) in 3NPA-induced model on SH-SY5Y; assay type: cell-based, human; conditions: for Superoxide radical formation (oxidative stress) %: 20 mM 3NPA = 100%, 24 hours
Description: Similarly, to previous assay, cells grown on 96-multiwell plates at density 20000 cells per well underwent differentiation and treatment procedure with 3-nitropropionic acid (3NPA) in this model. After 24 hours of co-treatment with 20 mM 3NPA, superoxide radical's formation as a marker of oxidative stress was quantified by dihydroethidium according to Kim et al. (2017, J. Med. Food, 20, 140-151). Briefly, neuron-like SH-SY5Y cells were centrifuged at 500 g for 5 min and 30 s, then media were replaced by 10 μM DHE PBS solution and kept at room temperature for 30 min. After that, DHE was read at 500 nm/580 nm (excitation/emission) by Infinite M200 Pro (Tecan) microplate reader. DHE is cell permeable dye which is selective for superoxide radical detection. Overall oxidative stress achieved by 20 mM 3NPA was consider as 100% and thus the reduction in superoxide radical's formation (OS reducing effect) was determined. As shown in Table 6 and FIG. 2, 20 mM 3NPA induced 2.7-fold increase in superoxide radical's formation.

[2] = system: human neuroblastoma cell line SH-SY5Y; assay: Viability of differentiated SH-SY5Y in salsolinol-induced model of PD (Calcein AM); assay type: cell-based; conditions: for Neuroprotective effect (% of control): difference between 800 μM SAL and co-treatment group means
Description: Similarly, as in previous “Safety test”, the SH-SY5Y cells were seeded at density 7000 cells/well. After 48 h differentiation, old 1% DMEM/F12 media was replaced by fresh media containing 800 μM salsolinol (SAL) and tested compounds in 0.1, 1 and 10 μM concentrations. N-acetylcystein were chosen as positive control. After 24 hours, the cell viability was measured by Calcein AM viability assay. The values in Table 2 show % of viability of all tested compounds relative to control. The control (medium with DMSO, <0.1% (v/v)) was postulated as 100% viability (see the first line of the table), while the SAL exposure lead to decrease of viability to 65.4±0.97%.

[3] = system: human neuron-like SH-SY5Y cells; assay: 3NPA-induced model of Huntington's disease, neuron-like SH-SY5Y cells; assay type: cell-based; conditions: difference to 20 mM 3NPA, 48 h
Description: (§1) Before application of toxin 3-nitropropionic acid (3NPA) for mimicking Huntington's disease, the 3NPA was dissolved in water and neutralized by sodium hydroxide. SH-SY5Y cells were seeded in the same density and differentiated by the procedure shown above. Astrocyte cells A-172 were also seeded as described in previous section. Both cell lines were co-treated by 3NPA (20 mM for SH-SY5Y cells, […]) and tested compounds at 0.1, 1 and 10 μM concentration for 48 h.

[4] = system: SH-SY5Y human neuroblastoma cell line; assay: Cytotoxicity, Calcein AM viability assay on neuron-like SH-SY5Y cells; assay type: cell-based; conditions: 24 h
Description: The SH-SY5Y human neuroblastoma cell line obtained from ECACC (The European Collection of Authenticated Cell Cultures) was cultivated in Dulbecco's modified Eagle's Medium and Ham's F12 Nutrient Mixture (DMEM:F-12, 1:1), supplemented with 10% fetal bovine serum (FBS) and 1% penicillin and streptomycin at 37° C. in a humidified atmosphere 5% CO2, 95% humidity in passage limit up to ECACC+20. The assay was performed in 96-well microplate with 7000 SH-SY5Y cells per well. After 48 h, old DMEM/F12 media was removed by fresh media containing tested compounds at 0.1, 1 and 10 μM concentrations for 24 h. Glial cell line A-172 purchased from ATCC and grown in same conditions as SH-SY5Y cell line. A-172 cells were seeded in density 2000 cells per well and growing medium was replaced by treatment medium containing tested compounds in 0.1, 1 and 10 μM concentration; or in higher concentrations for R-LA or NAC positive controls for 48 hours. All tested compounds dissolved in DMSO were added into the medium. The maximum concentration of DMSO in media was kept below 0.1% (v/v). The cell viability was measured by Calcein AM (1 mg/ml ThermoFisher) viability assay. Solution of Calcein AM in PBS (0.75 μM) was pipetted to cells and incubated for 50 min. After that the fluorescence was measured at 488/517 nm (excitation/emission) using microplate reader Infinite M200 (TECAN). Calcein AM assay is based on the dye-intracellular-esterase cleavage of non-fluorescent dye (Calcein AM) by living cells to fluorescent dye (Calcein), while dying cells lose such ability. The values in Table 2 show the % of viability compared to control for all tested compounds. The results from DMSO control (medium with DMSO, <0.1% (v/v)) was postulated as 100% viability (see the first line of Table 2).

caspase-3,7 activity = assay: Caspase-3,7 activity in salsolinol-induced model of PD on SH-SY5Y (Ac-DEVD-AMC); assay type: cell-based, human; conditions: for Caspase-3,7 activity (% of 800 μM SAL control): percentages of control (800 μM SAL = 100), 24 hour co-treatment; for reduction of caspase-3,7 activity, in words: 800 μM SAL, compounds 3 and 4 at 10 μM compared with NAC
Description: Similarly, as shown in previous assay, cells grew on 96 multiwell plates at density 20000 cells per well underwent differentiation and treatment procedure for salsolinol model. After 24 hour co-treatment with salsolinol, caspase-3,7 (casp-3,7) activity as marker of apoptosis was quantified by its substrate Ac-DEVD-AMC according to Carrasco et al. (2003, BioTechniques, 34, 1064-1067). In this model, overall casp-3,7 activity induced by 800 μM SAL was consider as 100% and thus the reduction in casp-3,7 was observed after treatment with the protective terpenoid derivatives. As shown in Table 4 and FIG. 2, 800 μM SAL induced 2.9-fold increase.

astrocyte A-172 cells = assay: 3NPA-induced model of Huntington's disease, astrocyte A-172 cells; assay type: cell-based, human; conditions: for Astro-protective effect (% of control): difference to 10 mM 3NPA, 48 h
Description: as §1

glial A-172 cells = assay: Cytotoxicity, Calcein AM viability assay on glial A-172 cells; assay type: cell-based, human; conditions: 48 hours

SMILES | Superoxide radical formation (oxidative stress) % ([1]; 0.1 μM) [%] | Superoxide radical formation (oxidative stress) % ([1]; 1 μM) [%] | Superoxide radical formation (oxidative stress) % ([1]; 10 μM) [%] | Neuroprotective effect (% of control) ([2]; 0.1 μM, 24 hours) | Neuroprotective effect (% of control) ([2]; 1 μM, 24 hours) | Neuroprotective effect (% of control) ([2]; 10 μM, 24 hours) | Neuro-protective effect (% of control) ([3]; 0.1 μM) | Neuro-protective effect (% of control) ([3]; 1 μM) | Neuro-protective effect (% of control) ([3]; 10 μM) | viability, percentage of DMSO control ([4]; 0.1 μM) [%] | viability, percentage of DMSO control ([4]; 1 μM) [%] | viability, percentage of DMSO control ([4]; 10 μM) [%] | Caspase-3,7 activity (% of 800 μM SAL control) (caspase-3,7 activity; 1 μM) [%] | Caspase-3,7 activity (% of 800 μM SAL control) (caspase-3,7 activity; 10 μM) [%] | reduction of caspase-3,7 activity, in words (caspase-3,7 activity) | Astro-protective effect (% of control) (astrocyte A-172 cells; A-172, 0.1 μM) | Astro-protective effect (% of control) (astrocyte A-172 cells; A-172, 1 μM) | Astro-protective effect (% of control) (astrocyte A-172 cells; A-172, 10 μM) | viability, percentage of DMSO control (glial A-172 cells; 0.1 μM) [%] | viability, percentage of DMSO control (glial A-172 cells; 1 μM) [%] | further results
O=C(O)CC[N+](=O)[O-] [Compound 3NPA, 3-nitropropionic acid, reference compound] |  |  |  |  |  |  |  |  |  |  |  |  |  |  |  |  |  |  |  |  | increase in superoxide radical's formation ([1]; 20 mM 3NPA versus DMSO control): 2.7 fold
C=C(C(=O)OCc1ccco1)C1CCC2(COC(C)=O)CCC3(C)C(CCC4C5(C)CCC(OC(C)=O)C(C)(C)C5CCC43C)C12 (stereo not drawn) [Compound 5, Furan-2-yl-methyl 3β,28-diacetyloxylup-20(29)-en-30-oate] | 94.1 | 87.3 | 87.1 | N/A (N/A = no protection) | N/A (N/A = no protection) | 18.96 % of control | N/A (N/A = no protection) | N/A (N/A = no protection) | 20.63 % of control | 91.9 | 106.4 | 129.5 | 86.8 | 76.5 | positive effect on casp-3,7 activity | N/A (N/A = no protection) | 12.87 % of control | 14.05 % of control | 96.6 | 100.0 | effect on SH-SY5Y viability in salsolinol model, in words ([2]; 800 μM salsolinol, comparison with NAC): better effect than 1000 μM NAC; efficacy relative to positive controls (by used concentration) (caspase-3,7 activity; caspase-3,7 activity, salsolinol model): 10 fold; protective effect on astrocytes in 3NPA model, in words (astrocyte A-172 cells; A-172 cells, comparison with R-LA): positive effect comparable to R-LA control; viability, percentage of DMSO control (glial A-172 cells; 10 μM): 90.8%
C=C(C(=O)OCc1cccs1)C1CCC2(COC(C)=O)CCC3(C)C(CCC4C5(C)CCC(OC(C)=O)C(C)(C)C5CCC43C)C12 (stereo not drawn) [Compound 6, Thiophen-2-ylmethyl 3β,28-diacetyloxy-lup-20(29)-en-30-oate] | 92.2 | 89.9 | 88.0 | N/A (N/A = no protection) | N/A (N/A = no protection) | 7.38 % of control | N/A (N/A = no protection) | N/A (N/A = no protection) | 20.53 % of control | 92.1 | 96.2 | 113.5 | 93.2 | 88.3 | positive effect on casp-3,7 activity | 4.27 % of control | 4.57 % of control | 7.45 % of control | 99.9 | 98.4 | viability, percentage of DMSO control (glial A-172 cells; 10 μM): 96.2%
O=C(O)CCCC[C@@H]1CCSS1 [R-LA, R-lipoic acid, reference compound] |  |  |  |  |  |  |  |  |  |  |  |  |  |  |  |  |  |  |  |  | Astro-protective effect (% of control) (astrocyte A-172 cells; A-172, column head 0.5 μM (positive controls)): N/A (N/A = no protection); Astro-protective effect (% of control) (astrocyte A-172 cells; A-172, column head 5 μM (positive controls)): 13.27 % of control; Astro-protective effect (% of control) (astrocyte A-172 cells; A-172, column head 50 μM (positive controls)): 14.87 % of control
C[C@@H]1NCCc2cc(O)c(O)cc21 [SAL, salsolinol, reference compound] |  |  |  |  |  |  |  |  |  |  |  |  |  |  |  |  |  |  |  |  | viability relative to DMSO control after SAL exposure ([2]; 800 μM salsolinol alone, 24 hours): 65.4±0.97%; increase of caspase-3,7 activity (caspase-3,7 activity; 800 μM SAL versus DMSO control): 2.9 fold
